One data set relates to A/New Caledonia (H1N1). In kind it is cell-based, influenza A virus.
Data set [1] concerns the target influenza sialidase (subtype N9) (Influenza A virus, UniProt P03472). The data set can be described thus: biochemical. Type of data set: biochemical.
Data set [2] relates to influenza A/Denver/1/57 (H1N1). Briefly: microbe, parasite or virus in culture. Type of data set: cell-based, influenza A virus. As to conditions: Influenza A virus, H1N1, MDCK, read-out: Cytoprotective effect.
A further data set has as its system A/Brisbane NML (H3N2). Type of data set: cell-based, influenza A virus.
For data set [3] the following is noted: 1 mg/kg.
For data set [4], the system named is influenza A virus, A/HK/1/68 (H3N2). Details: species or system Balb/C mice (Mus musculus). To be noted: mouse, in vivo.
The subject of data set [5] is influenza B/HongKong/5/72. Briefly: microbe, parasite or virus in culture. Type of data set: cell-based, influenza B virus. To be noted: Influenza B virus, MDCK, read-out: Cytoprotective effect.
The test system of another data set is A/Denver (H1N1). Type of data set: cell-based, influenza A virus.
Data set [6] has as its system influenza B/Florida/04/06. Type of data set: cell-based.
The test system of a further data set is MDCK cells. As to conditions: dog.
Data set [7] deals with influenza A/Brisbane/10/2007 (H3N2). The data set can be described thus: microbe, parasite or virus in culture. Type of data set: cell-based, influenza A virus.
The next data set relates to B/Perth wt. The data set can be described thus: microbe, parasite or virus in culture. In kind it is cell-based. As to conditions: Influenza B virus, read-out: sensitivity to inhibitors, B/Perth wt.
A further data set addresses H1N1 OsR (Influenza A virus (H1N1), UniProt Q289M4). To be noted: for ki: pH 7.6.
Another data set concerns sH1N1/01 wt. The data set can be described thus: microbe, parasite or virus in culture. In kind it is cell-based. As to conditions: Influenza A virus, read-out: IC50 sH1N1/01 wt.
The test system of the next data set is sH1N1/08 wt. Briefly: microbe, parasite or virus in culture. In kind it is cell-based. To be noted: Influenza A virus, read-out: IC50 sH1N1/08 wt.
A further data set concerns Fukui H3N2 wt. The data set can be described thus: microbe, parasite or virus in culture. In kind it is cell-based. To be noted: Influenza A virus, H3N2, read-out: IC50 Fukui H3N2 wt.
Data set [8] relates to B/Florida wt (B/Florida/4/2006). The data set can be described thus: microbe, parasite or virus in culture. In kind it is cell-based. To be noted: Influenza B virus, read-out: IC50 B/Florida wt.
Data set [9] deals with Auckland pH1N1 wt (A/Auckland/3/2009). Briefly: microbe, parasite or virus in culture. In kind it is cell-based. To be noted: Influenza A virus, read-out: IC50 Auckland pH1N1 wt.
The target in the next data set is H1N1 (Influenza A virus (H1N1), UniProt Q289M4).
H1N1, sequence (Q289M4 whole entry, looked up): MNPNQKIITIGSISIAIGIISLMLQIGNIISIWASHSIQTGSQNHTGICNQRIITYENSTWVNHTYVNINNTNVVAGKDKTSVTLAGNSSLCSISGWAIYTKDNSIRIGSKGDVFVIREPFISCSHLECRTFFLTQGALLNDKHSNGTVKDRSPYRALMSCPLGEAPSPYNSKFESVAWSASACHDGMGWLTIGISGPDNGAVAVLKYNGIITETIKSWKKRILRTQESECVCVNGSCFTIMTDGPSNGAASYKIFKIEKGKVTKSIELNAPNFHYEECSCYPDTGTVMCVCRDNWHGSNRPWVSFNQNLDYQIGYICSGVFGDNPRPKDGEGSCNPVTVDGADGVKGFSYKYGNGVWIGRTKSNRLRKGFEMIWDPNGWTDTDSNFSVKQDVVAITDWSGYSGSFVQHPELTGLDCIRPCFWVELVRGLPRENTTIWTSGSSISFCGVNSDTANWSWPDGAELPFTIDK

Each structure is given as a SMILES string. Values joined by “and” are separate entries in the source; they are usually repeats but may differ in a detail not shown here. Identical values can stand only once. Like-named read-outs stand apart in the source and are kept apart here.

By Kd is commonly meant the equilibrium constant for the complex coming apart. High values mean a looser complex, low ones a tighter complex. As a reminder, the Ki is the dissociation constant of the complex between target and ligand, obtained from inhibition or displacement. Lower therefore signals tighter binding.

H1N1 OsR, sequence (Q289M4 whole entry, looked up): as above
influenza sialidase (subtype N9), sequence (P03472 whole entry, looked up): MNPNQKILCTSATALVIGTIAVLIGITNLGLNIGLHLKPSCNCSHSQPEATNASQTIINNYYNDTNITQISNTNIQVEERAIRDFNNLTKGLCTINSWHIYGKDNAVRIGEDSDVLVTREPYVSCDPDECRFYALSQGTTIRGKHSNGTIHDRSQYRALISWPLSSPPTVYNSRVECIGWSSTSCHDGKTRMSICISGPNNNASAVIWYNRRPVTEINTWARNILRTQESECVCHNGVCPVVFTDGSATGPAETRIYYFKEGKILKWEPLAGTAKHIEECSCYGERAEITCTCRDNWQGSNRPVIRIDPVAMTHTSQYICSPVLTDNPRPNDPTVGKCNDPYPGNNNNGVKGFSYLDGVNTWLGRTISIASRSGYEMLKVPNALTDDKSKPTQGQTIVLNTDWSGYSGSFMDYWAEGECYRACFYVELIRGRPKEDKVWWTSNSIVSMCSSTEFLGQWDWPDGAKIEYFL

Regarding `CC(=O)N[C@@H]1[C@@H](N)[C@@H](F)[C@](F)(C(=O)O)O[C@H]1[C@H](O)[C@H](O)CO` [Compound 4, (2R,3R)-4-Amino-2,4-dideoxy-2,3-difluorosialic acid], the entries for the “concentration of antiviral at which a confluent monolayer of MDCK cells was protected” value with A/New Caledonia (H1N1), in the data set with A/Brisbane NML (H3N2) and in the data set on A/Denver (H1N1) were <12.854^A μM, 51.415^B μM and <12.854^A μM, respectively. For the same molecule, the “half time for the full inactivation of the sialidase” value in [1] was “ca. 10 min”. The “half time for the full reactivation of the inactivated sialidase” value in [1] is listed as 4.8 h. Besides, in data set [1] (30° C., pH 7.6), the Kd was determined as 4000 nM. Also, the Ki in [1] (30° C., pH 7.6) was 93 nM and 93.2 nM. This molecule registered a khyd in data set [1] (30° C., pH 7.6) of 0.0024 min⁻¹. The minimal effective concentration in data set [2] is 0.888 µg/mL; in [5] it was 1.78 µg/mL; in data set [7] (Influenza A virus, H3N2, MDCK, read-out: Cytoprotective effect) it was 0.0069 µg/mL. For the same molecule, the “% weight loss mean +/− SD” value in data set [3] (mouse, in vivo) is 2.68 +/− 1.76%; in data set [4] (1 mg/kg) it was 16.02 +/− 2.07%. Also, the “number of animals remaining” value in data set [3] (n = 5) was determined as 5. The “survival compared to the untreated control group” value in [4] is “somewhat extend survival”. In addition, the Cytoprotective effect in data set [6] (Replicate 1) came out at 947 ng/mL; in data set [6] (Replicate 2), 1074 ng/mL; in [7] it was 9.2 ng/mL. Further, in the data set on MDCK cells, the Toxicity came to 3.6 µg/mL.

With `CC(=O)NC1C(NC(=N)N)C(F)C(F)(C(=O)O)OC1[C@H](O)[C@H](O)CO` (stereo partly drawn) [4-G3Feq diF SA, 5-Acetamido-2,4,5-trideoxy-2α, 3β-difluoro-4-guanidino-α-D-erythro-L-gluco-nonulopyranosonate], the IC50 turned out to be 4.5 nM in the data set on B/Perth wt; 12.6 nM in the data set with sH1N1/01 wt; 6.8 nM in the data set on sH1N1/08 wt; 24900 nM with Fukui H3N2 wt; 2 nM in data set [8]; 4 nM in data set [9]. Moreover, the “Half life for reactivation” value at H1N1 OsR came to 9 h. At H1N1 OsR, this molecule yielded a ki of 1.5 ± 0.16 min⁻¹.

On to `CC(=O)NC1C(N)C(F)C(F)(C(=O)O)OC1[C@H](O)[C@H](O)CO` (stereo in doubt) [Compound 2eq3eq4NH2, 5-Acetamido-2,4,5-trideoxy-4-amino-2α, 3β-difluoro-α-D-erythro-L-gluco-nonulo-pyranosonate], for which the “Half life for reactivation” value at H1N1 stood at 4 h. On H1N1 OsR, the “Half life for reactivation” value was determined as 2 h and the ki is 4.7 ± 0.1 min⁻¹.

Values taken from US9834534B2, “Neuraminidase inhibitor compounds, compositions and methods for the use thereof in anti-viral treatments” (THE UNIVERSITY OF BRITISH COLUMBIA, priority 2009, dated 2017).
